Columns and labels:
Src SH3 domain = biological target: T1, Src SH3 domain (Homo sapiens, UniProt P12931); assay: ITC binding to Src SH3 domain
T1 construct: fyn, yes, lck, and src SH3 protein domains were prepared following published procedures; made in house
Description: All chemical reagents were purchased from Sigma-Aldrich and were used without further purification.
Peptide synthesis. All peptides were synthesized manually or with an AAPPTEC APEX 396 Automated Multipeptide Synthesizer using standard solid-phase Fmoc protocols.1,2 Peptides were prepared as C-terminal amides using Rink amide MBHA resin (AAPPTEC) and were acetylated at the N-terminus prior to cleavage from the resin. Peptides and metallopeptides were purified by reverse-phase HPLC.
HPLC separation. Reverse-phase HPLC was performed on a Shimadzu CBM-20A instrument with Phenomenex Jupiter 4μ Proteo 90A (250 × 15 mm preparative) and Phenomenex Jupiter 4μ Proteo 90A (250 × 4.6 mm analytical) columns. The columns were eluted with a gradient of acetonitrile in water (10-90%) (flow rates of 8 mL/min and 1 mL/min for preparative and analytical columns, respectively). Trifluoroacetic acid (0.1%) was added to all eluents.
FPLC separation. Analytical FPLC was performed on an ÄKTA instrument with Superdex Peptide PE 7.5/300 column. The column was equilibrated with buffer (150 mM NaCl, 50 mM Tris, pH 7.0) at flow rate of 0.2 mL/min.
ITC analysis. ITC experiments were carried out on a VP-ITC instrument (MicroCal) at 25 °C. Titrations of 275 μM peptide into 18 μM SH3 domain proteins were used for all titrations, except for the titration of S2ERh into Lyn SH3 domain, where the lower concentrations of 69 µM S2ERh peptide and 4 µM Lyn SH3 were used to attain a c-value for the titration within the accepted limts for ITC experiments ([…]).3
Heats of dilutions were measured independently for each experiment by titrating 275 μM peptide into buffer (20 mM phosphate buffer, pH 7, 150 mM NaCl, 1 mM EDTA). All experimental data were fitted using a one set of sites binding model in Origin software (MicroCal) except for the data with Hck SH3 domain. With Hck only, the non-peptide specific binding of dirhodium tetraacetate to Hck SH3 domain could not be treated as negligible, despite the very weak interaction (88 µM), due to the larger enthalpy contribution observed for non-specific binding to this SH3 domain, so the titrations of peptide into Hck were fitted using a 2 set of sites binding model where the stoichiometry for the second set of sites was fixed at 2.0. […]
Mass spectrometry. ESI-MS was performed on a Bruker Daltonics micrOTOF instrument.
Known compounds and proteins. Several metallopeptides (S2ERh, L3ERh, R5ERh, and 13DRh) were reported previously and were prepared by known protocols;4 alkyne-diazo 3,5 3-azido-7-hydroxycoumarin6 were synthesized following reported procedures; fyn, yes, lck, and src SH3 protein domains were prepared following published procedures.5 Abl, hck, and lyn SH3 domain plasmids were adapted from the previously reported genes;7 the gene templates were obtained from Addgene, ID

[1] = biological target: T2, Lyn SH3 H78A and H96A double mutant (Homo sapiens, UniProt P07948, H78A/H96A); assay: Binding to Lyn SH3 H78A and H96A double mutant; settings: read-out: affinity
T2 construct: The lyn SH3 domain was amplified by PCR using Phusion DNA polymerase; GST (N, cleaved yes); made in house; host or cells: E. coli BL21 (DE3)
T2 sequence (P07948 63-123 H78A/H96A limits assumed): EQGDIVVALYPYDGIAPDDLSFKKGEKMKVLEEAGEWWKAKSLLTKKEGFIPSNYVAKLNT
Description: The remarkable 6 nM affinity, far stronger than that of any reported non-protein ligand for SH3 domains, led us to study the structural basis of the observed affinity. […] The H78A and H96A double mutant binds much more weakly (>5 μM). […] That the majority of the stabilization energy comes from the first histidine coordination is consistent with the negative cooperativity generally seen for axial coordination to rhodium(II): a second coordination in solution is roughly two orders of magnitude less favorable.[40]–[43]
Abl SH3 domain preparation. The abl SH3 domain was amplified by PCR using Phusion DNA polymerase (Finnzymes). The
reactions were performed following manufacture's protocol with Phusion HF buffer and 5% DMSO. Primers were designed as
follows: 5'-[…]-3' (BamHI site underlined) and a reverse primer, 5'-
-3' (EcoRI site underlined). The resultant product was digested with
BamHI and EcoRI and subcloned into BamHI-EcoRI sites of pGex-KTO. Confirmed PCR fidelity by sequencing.
Hck SH3 domain preparation. The hck SH3 domain was amplified by PCR using Phusion DNA polymerase (Finnzymes). The
Lyn SH3 domain preparation. The lyn SH3 domain was amplified by PCR using Phusion DNA polymerase (Finnzymes). The […]
assessed by SDS-PAGE using 12% Bis-Tris gels (Invitrogen). […]
concentrated, and aliquoted for storage at –80 °C. Concentration was determined using the absorbance at 280 nm (NanoDrop, […]

## AcVELARRPLPPLPN-NH2 [S2E^Rh]
Src SH3 domain
  Stoichiometry: 1.1
Src SH3 domain; 25 °C
  -TΔS: 7.2 kcal/mol
  Kd: 327 nM
  ΔG: -8.8 kcal/mol
  ΔH: -16.0 kcal/mol

## AcVELARRPLPPLPN-NH2 (Ac-VELARRPLPPLPN-NH2; also: Glu2 side-chain carboxylate bound to Rh2(OAc)3) [S2E^Rh, rhodium(II) metallopeptide made from S2E peptide (Ac…-NH2) and Rh2(tfa)(OAc)3]
[1]
  Kd: > 5000 nM
